Experimental findings from US20220296535A1, “Antibacterial Dosage Regime Using Cannabinoids” (Botanix Pharmaceuticals Limited, priority 2019, published 2022) are described below.

Test [1] concerns S. aureus MSSA (26 strains). Briefly: MIC50/MIC90 micro-broth dilution, MSSA strains.
Another test relates to S. aureus ATCC 43300. Briefly: Anaerobic MIC micro-broth dilution. In kind it is cell-based, Staphylococcus aureus. (In broth dilution the organism is exposed to a series of concentrations in liquid medium.)
The subject of test [2] is S. aureus MRSA (106 strains). In words: MIC50/MIC90 micro-broth dilution, MRSA strains. Type of test: cell-based, Staphylococcus aureus.
The next test concerns P. acnes ATCC 6919. In words: Anaerobic MIC micro-broth dilution. In kind it is cell-based, Cutibacterium acnes (formerly Propionibacterium acnes).
Test [3] has as its system Staphylococcus aureus ATCC 43300. Briefly: Broth MIC (Example 1). Particulars: for MIC: Staphylococcus aureus. In kind it is cell-based. As to the method:
(§1) The collaborator supplied sample as dry material. A stock solution at 10 mg/mL in neat DMSO (11.2 mg in 1.12 mL of DMSO) was prepared. The highest concentration tested in the assay was 128 μg/mL and 2% DMSO as a final concentration using 1/20 dilution to achieve these concentrations.

The test system of test [4] is Staphylococcus aureus MRSA ATCC 43300 biofilm. In words: Biofilm minimum inhibitory concentration (Biofilm MIC), crystal violet OD590. In kind it is cell-based. Particulars: two technical replicates, ≥70% inhibition OD590; for Biofilm MIC (TSB + 5% Gluc) 07/112/18: first biological replicate; for Biofilm MIC (TSB + 5% Gluc) 14/112/18: second biological replicate. Here is the method:
as §1
Bacteria (Staphylococcus aureus, ATCC 43300; MRSA) was cultured on Tryptic Soy Broth (TSB, BD, Cat. No. 211825) at 37° C. overnight, then it was diluted 1:100 in fresh TSB supplemented with 5% glucose. 100 μL were added across the 96-well of polystyrene (PS) (Corning; Cat. No. 3370) plate, leaving row H as media Control. Plates were incubated at 37° C. for 48 h to generate the biofilm. The plates were prepared in duplicate.
The antibiotic controls and CBD were serially diluted in TSB with 5% glucose two-fold across the wells of polystyrene (PS) 96-well plates (Corning; Cat. No. 3370), plated in duplicate. All plates had flat bottom wells and were covered with low-evaporation lids.
48 h after incubation, bacteria plates were carefully washed three times with 200 μL/well of saline solution (0.9% NaCl, Baxter Healthcare; Cat. No. AHF7124) using manual pipette to remove the planktonic cells but leave the biofilm adhered to the plate wells. Then, 100 μL of diluted controls and CBD were transferred into the washed plates containing the biofilm. Then, these plates were incubated at 37° C. for 24 h.
Next day, plates were washed three times with saline solution, then fixed with 100 μL/well of 99% methanol for 15 minutes. Once the biofilm was fixed, 100 μL/well 0.1% Crystal Violet Stain (Sigma; Cat No. C0775-25G) was added for 20 minutes and used as indicator of biofilm formation, followed by three times washing and dry well. To dissolve the crystal violet, 150 μL/well of methanol was added to allow for biofilm MIC analysis.
The biofilm formation was determined by optical density read at 590 nm (OD590). The percentage of biofilm formation was evaluated comparing the average, standard deviation and percentage of confidence of the media control (Row H) against the rest of the plate.
Analysis was performed using Microsoft Excel.

Test [5] relates to 132 strains of Staphylococcus aureus (106 MRSA and 26 MSSA strains). Briefly: MIC50/MIC90 micro-broth dilution, all strains.
Test [6] concerns A. acidipropionici ATCC 25562. Briefly: Anaerobic MIC micro-broth dilution. Type of test: cell-based, Acidipropionibacterium acidipropionici.
The test system of the next test is C. granulosum ATCC 25564. In words: Anaerobic MIC micro-broth dilution. Type of test: cell-based, Cutibacterium granulosum. Particulars: Cutibacterium granulosum, ATCC25564, 48 h.
Test [7] has as its system high-level mupirocin-resistant isolate 993. In words: MIC microtiter broth dilution (Example 9). Particulars: Staphylococcus aureus; MRSA strain 993. Type of test: cell-based. As to the method: (§2) Strains used: ATCC 29213 (standard control), ATCC 43300, low-level mupirocin-resistant isolate 815, high-level mupirocin-resistant isolage 329, high-level mupirocin-resistant isolate 993.
(§3) All strains prepared as described in “Bacterial Preparation” section above with the following differences: inocula were prepared in Müller-Hinton broth (MHB) rather than RPMI, and were diluted 1:10,000 following wash for an inoculum concentration of ˜5×10^4 CFU/mL.
(§4) Using a multichannel pipet, 100 μL of MHB was added to each of the wells of the 96-well plates (round bottom/U-bottom). Stock solutions of antibiotic were prepared at 2× the highest assay concentration (mupirocin at 4096 μg/mL and CBD at 100 μg/mL). 100 μL of this broth was added to each of the broth-containing wells in column 1 of the plate, and mixed by pipetting the full volume 6-7 times, for a final concentration of 2048 μg/mL mupirocin or 50 μg/mL CBD. […]
(§5) 5 μL of each inoculum was added to the appropriate wells (various wells were left without inoculation and used to correct the absorbance of the CBD-containing wells and as negative controls). […] Plate was read by a plate reader at 600 nm.
(§6) Inhibition was determined to have occurred in the first well with a difference in OD600 of <0.05 from the uninfected wells with the same concentration of antimicrobial, provided inhibition growth continued through all higher concentrations. […]

Test [8] deals with high-level mupirocin-resistant isolate 329. Briefly: MIC microtiter broth dilution (Example 9). In kind it is cell-based. Particulars: Staphylococcus aureus; MRSA strain 329. Here is the method: as §2, §3, §4, §5, §6
The mark [9] stands for this setting: S. aureus ATCC 43300, anaerobic chamber, BHI, 48 h.
[10] abbreviates: A. acidipropionici ATCC 25562, anaerobic chamber, BHI, 48 h.
Where [11] appears, read: ATCC43300, read-out: Broth MIC, TSB + 5% Glucose.
Where [12] appears, read: Cutibacterium acnes, ATCC6919, 48 h.
[13] abbreviates: ATCC43300, read-out: Broth MIC, CAMHB.
Setting [14] is: Acidipropionibacterium acidipropionici, ATCC25562, 48 h.

Converted amounts (≈) assume the structure as drawn. “And” between values parts separate entries of the source, which are not always exact repeats. Equal values may be shown once. Where a name gives a salt, the structure may show the parent alone. Read-outs that look alike come from different tables or passages of the source.

Broadly, the MIC50 is an inhibitory concentration at the 50% level, which refers to growth in some studies and to a panel of isolates in others. A low value points to higher susceptibility. For orientation: MIC90 means the lowest concentration that inhibits either 90% of growth or 90% of the strains tested, depending on the study. Low readings indicate higher susceptibility, high ones lower susceptibility. For orientation: MIC means the lowest concentration that inhibits growth of the organism. On to `CCC[C@@H]1C[C@@H](C(=O)N[C@@H]([C@H]2O[C@H](SC)[C@H](O)[C@@H](O)[C@H]2O)[C@H](C)Cl)N(C)C1.Cl.O` [Clindamycin, Clindamycin hydrochloride monohydrate], for which the “MIC50” value in test [1] (S. aureus MSSA), in [2] (S. aureus MRSA) and in test [5] (S. aureus spp. ALL) was 0.125 µg/mL in each case. Moreover, the “MIC90” value turned out to be 0.1875 µg/mL in test [1] (S. aureus MSSA), 64 µg/mL in test [2] (S. aureus MRSA) and 64 µg/mL in test [5] (S. aureus spp. ALL). Also, the MIC in the test on S. aureus ATCC 43300 (setting [9]) is greater than 32 µg/mL; against P. acnes ATCC 6919 (P. acnes ATCC 6919, anaerobic chamber, BHI, 48 h), 0.125 µg/mL; in test [6] (setting [10]) it was 0.125 µg/mL. Further, the “Broth MIC” value in [3] (CAMHB) and in [3] (TSB + 5% Glucose) was greater than 64 µg/mL throughout. In addition, the “Biofilm MIC (TSB + 5% Gluc) 07/112/18” value in test [4] is greater than 64 µg/mL. In addition, the “Biofilm MIC (TSB + 5% Gluc) 14/112/18” value in [4] was greater than 64 µg/mL. Besides, the MIC range in [5] (S. aureus spp. ALL) lay in the range of 0.03 to 64 µg/mL.
In test [1] (Staphylococcus aureus, MSSA), `CCCCCCCCCC(=O)N[C@@H](Cc1c[nH]c2ccccc12)C(=O)N[C@H](CC(N)=O)C(=O)N[C@@H](CC(=O)O)C(=O)N[C@@H]1C(=O)NCC(=O)N[C@@H](CCCN)C(=O)N[C@@H](CC(=O)O)C(=O)N[C@H](C)C(=O)N[C@@H](CC(=O)O)C(=O)NCC(=O)N[C@H](CO)C(=O)N[C@@H]([C@H](C)CC(=O)O)C(=O)N[C@@H](CC(=O)c2ccccc2N)C(=O)O[C@@H]1C` [Daptomycin, reference compound] registered an MIC50 of 2 µg/mL (≈ 1.23 µM) and an MIC90 of 2 µg/mL (≈ 1.23 µM). In test [2] (Staphylococcus aureus, MRSA), this molecule came in with an MIC50 of 2 µg/mL (≈ 1.23 µM) and an MIC90 of 4 µg/mL (≈ 2.47 µM). Besides, the MIC in test [3] (setting [11]) stood at 32 µg/mL. In addition, in test [4], the “Biofilm MIC (TSB + 5% Gluc) 07/112/18” value was 32 µg/mL and 16 µg/mL; the “Biofilm MIC (TSB + 5% Gluc) 14/112/18” value is 16 µg/mL. Moreover, the MIC range in test [5] (S. aureus spp. ALL) was 0.5 to 16 µg/mL. In [5] (Staphylococcus aureus), this molecule displayed an MIC50 of 2 µg/mL (≈ 1.23 µM) and an MIC90 of 4 µg/mL (≈ 2.47 µM).
Take `CC[C@H]1OC(=O)[C@H](C)[C@@H](O[C@H]2C[C@@](C)(OC)[C@@H](O)[C@H](C)O2)[C@H](C)[C@@H](O[C@@H]2O[C@H](C)C[C@H](N(C)C)[C@H]2O)[C@](C)(O)C[C@@H](C)C(=O)[C@H](C)[C@@H](O)[C@]1(C)O` [Erythromycin]: the MIC was 0.125 µg/mL (≈ 0.17 µM) against C. granulosum ATCC 25564; greater than 32 µg/mL in the test with S. aureus ATCC 43300 (Staphylococcus aureus, ATCC43300, 48 h); 4/2 in test [6] (setting [10]).
Turning to `C/C(=C\C(=O)OCCCCCCCCC(=O)O)C[C@@H]1OC[C@H](C[C@@H]2O[C@H]2[C@@H](C)[C@H](C)O)[C@@H](O)[C@H]1O` [Mupirocin], the MIC against C. granulosum ATCC 25564 is greater than 32 µg/mL; in the test on P. acnes ATCC 6919 (setting [12]), greater than 32 µg/mL; in test [3] (setting [13]), 0.25 µg/mL (≈ 0.499 µM); in test [3] (setting [11]), 0.25 µg/mL; in [6] (setting [14]) it was greater than 32 µg/mL; in [7], 256 to 2050 µg/mL (≈ 511 to 4090 µM). In addition, the MIC in test [8] was 256 to 2050 µg/mL (≈ 511 to 4090 µM). The MIC50 in test [1] (Staphylococcus aureus, MSSA) was determined as 0.5 µg/mL (≈ 0.999 µM); in test [2] (Staphylococcus aureus, MRSA) it was 0.5 µg/mL (≈ 0.999 µM); in test [5] (Staphylococcus aureus), 0.5 µg/mL (≈ 0.999 µM). For the same molecule, the MIC90 came out at 0.5 µg/mL (≈ 0.999 µM) in test [1] (Staphylococcus aureus, MSSA); 0.5 µg/mL (≈ 0.999 µM) in test [2] (Staphylococcus aureus, MRSA); 0.5 µg/mL (≈ 0.999 µM) in [5] (Staphylococcus aureus). Also, in [4], the “Biofilm MIC (TSB + 5% Gluc) 07/112/18” value was 0.25 µg/mL and 0.125 µg/mL. Also, the “Biofilm MIC (TSB + 5% Gluc) 14/112/18” value in [4] worked out at 0.25 µg/mL. Also, the MIC range in [5] (S. aureus spp. ALL) fell in the range of 0.125 to 64 µg/mL.
Regarding `COc1cc(Cc2cnc(N)nc2N)cc(OC)c1OC` [Trimethoprim], the MIC in test [3] (setting [13]) turned out to be 1 µg/mL (≈ 3.44 µM). Moreover, the minimum inhibitory concentration (MIC) in test [3] (setting [11]) came to 4 µg/mL. In test [4], the “Biofilm MIC (TSB + 5% Gluc) 07/112/18” value is 8 µg/mL; the “Biofilm MIC (TSB + 5% Gluc) 14/112/18” value was 16 µg/mL and >64 µg/mL.
`Cc1onc(-c2ccccc2)c1C(=O)N[C@@H]1C(=O)N2[C@@H]1SC(C)(C)[C@@H]2C(=O)O` [Oxacillin sodium salt hydrate]: the MIC in the test on S. aureus ATCC 43300 (setting [9]) was 64/16/8; in test [6] (setting [14]) it was 2 µg/mL.
As for `CN[C@H](CC(C)C)C(=O)N[C@H]1C(=O)N[C@@H](CC(N)=O)C(=O)N[C@H]2C(=O)N[C@H]3C(=O)N[C@H](C(=O)N[C@H](C(=O)O)c4cc(O)cc(O)c4-c4cc3ccc4O)[C@H](O)c3ccc(c(Cl)c3)Oc3cc2cc(c3O[C@@H]2O[C@H](CO)[C@@H](O)[C@H](O)[C@H]2O[C@H]2C[C@](C)(N)[C@H](O)[C@H](C)O2)Oc2ccc(cc2Cl)[C@H]1O` [Vancomycin], the MIC against C. granulosum ATCC 25564 came out at 0.25 µg/mL (≈ 0.173 µM); against P. acnes ATCC 6919 (setting [12]) it was 0.25 µg/mL (≈ 0.173 µM); in test [3] (setting [13]) it was 0.5 µg/mL (≈ 0.345 µM); in test [3] (setting [11]), 1 µg/mL. Besides, the MIC50 in [1] (Staphylococcus aureus, MSSA) came out at 1 µg/mL (≈ 0.69 µM); in [2] (Staphylococcus aureus, MRSA), 1 µg/mL (≈ 0.69 µM); in test [5] (Staphylococcus aureus) it was 1 µg/mL (≈ 0.69 µM). Moreover, the MIC90 was determined as 1 µg/mL (≈ 0.69 µM) in test [1] (Staphylococcus aureus, MSSA); 2 µg/mL (≈ 1.38 µM) in [2] (Staphylococcus aureus, MRSA); 2 µg/mL (≈ 1.38 µM) in [5] (Staphylococcus aureus). For the same molecule, the “Biofilm MIC (TSB + 5% Gluc) 07/112/18” value in test [4] came out at 4 µg/mL. Also, the “Biofilm MIC (TSB + 5% Gluc) 14/112/18” value in [4] was 4 µg/mL. In test [5] (S. aureus spp. ALL), this molecule yielded an MIC range of 0.5 to 64 µg/mL.
